From ChEMBL document CHEMBL3046784, “Exploring QSAR of antiamoebic agents of isolated natural products by MLR, ANN, and RTO” (Med Chem Res, 2012)
Values after ≈ are worked out from the molar mass of the structure shown.

Each compound was assayed on Entamoeba histolytica (assay: Antiamoebic activity against Entamoeba histolytica). Settings: Entamoeba histolytica; read-out: IC50.
Format: functional, organism-based

First: CC[C@@H](C)C(=O)O[C@H]1C(=O)O[C@@H]2C[C@H]3C(C)=CC(=O)[C@@H](O)[C@]3(C)[C@H]3[C@@H](O)[C@H](O)[C@]4(C)OC[C@]32[C@@H]14 [SIMALIKALACTONE D]
Second: COC(=O)[C@]12OC[C@]34[C@H]([C@@H](O)[C@@H]1O)[C@@]1(C)C=C(O[C@@H]5O[C@H](CO)[C@@H](O)[C@H](O)[C@H]5O)C(=O)[C@@H](C)[C@@H]1C[C@H]3OC(=O)[C@H](OC(C)=O)[C@@H]24 [YADANZIOSIDE F]
The IC50 of the first is 50-fold lower: 0.047 mg/L (≈ 0.0982 µM) for the first, 2.33 mg/L (≈ 3.63 µM) for the second.

Going from `O=C(/C=C/c1ccc(O)cc1)O[C@H]1[C@@H]2C=CO[C@@H](O[C@@H]3O[C@H](CO)[C@@H](O)[C@H](O)[C@H]3O)[C@@H]2[C@@]2(CO)O[C@@H]12` [SPECIOSIDE] to `O=C(/C=C/c1ccc(O)c(O)c1)O[C@@H]1C2C=CO[C@H](O[C@@H]3O[C@H](CO)[C@@H](O)[C@H](O)[C@H]3O)C2[C@]2(CO)O[C@H]12` (stereo not given in full) [VERMINOSIDE], the IC50 falls from 0.198 mg/L (≈ 0.39 µM) to 0.0995 mg/L (≈ 0.19 µM) (2-fold).

`C/C=C1\CN2CC[C@]34c5ccccc5N5[C@@H]([C@H]6[C@@H]7N(C(C)=O)c8ccccc8[C@@]78CCN7C/C(=C\C)[C@@H]6C[C@H]78)OC[C@@H]([C@H]53)[C@H]1C[C@H]24` [STRYCHNOBILINE] and `C=C[C@H]1CN2CC[C@@]3(C(=O)Nc4cc(O)ccc43)[C@@H]2C[C@@H]1C[C@H]1c2[nH]c3ccccc3c2CCN1C` [STRYCHNOFOLINE] are within 1.5-fold of each other in IC50: 21.5 mg/L (≈ 35 µM) for the first, 25.1 mg/L (≈ 51.9 µM) for the second.

Going from `C=C[C@H]1CN2CCc3c([nH]c4c([C@H]5CCCN5C)c(O)ccc34)[C@@H]2C[C@@H]1C[C@H]1c2[nH]c3ccccc3c2CCN1C` [STRYCHNOPENTAMINE] to `C=C[C@H]1CN2CCc3c([nH]c4ccccc34)[C@@H]2C[C@@H]1C[C@H]1c2[nH]c3ccccc3c2CCN1C` [USAMBARINE], the IC50 falls from 7.7 mg/L (≈ 14 µM) to 0.46 mg/L (≈ 1.02 µM) (17-fold).

Compared with `COc1cc2c3cc1Oc1c(OC)c(OC)c(O)c4c1[C@H](Cc1ccc(cc1)Oc1cc(ccc1O)C[C@@H]3N(C)CC2)N(C)CC4` [THALISOPIDINE], `COc1cc2c3cc1Oc1c(O)c(OC)cc4c1[C@H](Cc1ccc(O)c(c1)-c1cc(ccc1OC)C[C@H]3N(C)CC2)N(C)CC4` [TILIAGEINE] is 2.6-fold lower in IC50: 50 mg/L (≈ 80 µM) for the first, 19.2 mg/L (≈ 31.6 µM) for the second.

Going from `O=C(/C=C/c1ccc(O)cc1)OC[C@H]1O[C@@H](Oc2c(-c3ccc(O)cc3)oc3cc(O)cc(O)c3c2=O)[C@H](O)[C@@H](O)[C@@H]1O` [TILIROSIDE] to `COc1c(OC)c(O)c2c(=O)cc(-c3ccc(O)cc3)oc2c1OC` [XANTHOMICROL], the IC50 rises from 17.4 mg/L (≈ 29.4 µM) to 275 mg/L (≈ 798 µM) (16-fold).

First: COc1ccc2cc1Oc1ccc(cc1)CC1=NCCc3cc(OC)c4c(c31)Oc1cc3c(cc1O4)CCN(C)[C@H]3C2 [TRIGILLETIMINE]
Second: CC[C@H]1CN2CCc3cc(OC)c(OC)cc3[C@@H]2C[C@@H]1C[C@H]1NCCc2c1[nH]c1ccc(O)cc21 [TUBULOSINE]
The IC50 of the first is 15-fold higher: 23.3 mg/L (≈ 41.5 µM) for the first, 1.6 mg/L (≈ 3.36 µM) for the second.

Compound `C/C=C1/CN2CCc3c([nH]c4ccccc34)[C@@H]2C[C@@H]1Cc1nccc2c1[nH]c1ccccc12` [USAMBARENSINE] has an IC50 of 0.49 mg/L (≈ 1.13 µM).
